Measurements taken from PubChem BioAssay (NCI).
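The compound was tested at five concentrations on cells cultured in 96-well plates, with a 48-hour exposure period. At the GI50, growth is halved. TGI marks complete inhibition of growth.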

Tests used:
Experiment in all cases: NCI tumour cell line growth inhibition, 48 h
K-562 leukemia = tested on: K-562 leukemia
OVCAR-3 ovarian = tested on: OVCAR-3 ovarian
ACHN renal = tested on: ACHN renal
SK-MEL-2 melanoma = tested on: SK-MEL-2 melanoma
SF-539 CNS = tested on: SF-539 CNS
UACC-62 melanoma = tested on: UACC-62 melanoma
MALME-3M melanoma = tested on: MALME-3M melanoma
COLO 205 colon = tested on: COLO 205 colon
OVCAR-8 ovarian = tested on: OVCAR-8 ovarian
NCI-H522 lung = tested on: NCI-H522 lung

Row | SMILES | GI50 (K-562 leukemia) [µM] | TGI (K-562 leukemia) [µM] | GI50 (OVCAR-3 ovarian) [µM] | TGI (OVCAR-3 ovarian) [µM] | GI50 (ACHN renal) [µM] | TGI (ACHN renal) [µM] | GI50 (SK-MEL-2 melanoma) [µM] | TGI (SK-MEL-2 melanoma) [µM] | GI50 (SF-539 CNS) [µM] | TGI (SF-539 CNS) [µM] | GI50 (UACC-62 melanoma) [µM] | TGI (UACC-62 melanoma) [µM] | GI50 (MALME-3M melanoma) [µM] | TGI (MALME-3M melanoma) [µM] | GI50 (COLO 205 colon) [µM] | TGI (COLO 205 colon) [µM] | GI50 (OVCAR-8 ovarian) [µM] | TGI (OVCAR-8 ovarian) [µM] | GI50 (NCI-H522 lung) [µM] | TGI (NCI-H522 lung) [µM]
1 | COC1=C(OC)C(=O)C(/C=C(\C)C(=O)O)=C(C)C1=O | > 100 | > 100 | > 100 | > 100 | > 100 | > 100 | > 100 | > 100 | > 100 | > 100 | > 100 | > 100 | > 100 | > 100 | > 100 | > 100 | > 100 | > 100 | > 100 | > 100
2 | COc1cc(/C=C/C(=O)C(=Cc2ccc(F)c(F)c2)C(=O)/C=C/c2ccc(O)c(OC)c2)ccc1O | 3.16 | 32.8 | 1.91 | 4.78 | 3.27 | 19.9 | 1.81 | 3.58 | 3.26 | 13.6 | 1.93 | 5.14 | 5.61 | 37.3 | 2.26 | 4.74 | 2.93 | 11.1 | 1.45 | 3.12
3 | Nc1nnc2nc(CC(=O)/C=C/c3ccccc3)c(=O)[nH]n12 |  | > 100 |  | > 100 |  | > 100 |  | > 100 |  | > 100 |  | > 100 |  | > 100 |  | > 100 |  | > 100 |  | > 100
4 | Cc1c2ccccc2c(C)c2c3c(ccc12)C(=O)C=CC3=O |  | 50.9 |  | 38.3 |  | 33.3 |  | > 84.6 |  | > 100 |  | > 100 |  | > 79.2 |  | 31.5 |  | 28.7 |  | 28
5 | CC1C2Cc3ccc(O)cc3C1(C)CCN2C (centres undefined) |  | > 100 |  | > 100 |  | > 100 |  | > 100 |  | > 100 |  | > 100 |  | > 100 |  | > 100 |  | > 100 |  | > 100
6 | CC(C)(O)[C@@H]1CCC(C)([C@H]2[C@@H](O)CC3(C)C4CC(OC5OC(CO)C(O)C(O)C5O)C5C(C)(C)[C@@H](OC6OCC(O)C(O)C6O)CC[C@@]56C[C@@]46CC[C@]23C)O1 (some centres undefined) |  | > 100 |  | > 100 |  | > 100 |  | > 100 |  | > 100 |  | > 100 |  | > 100 |  | > 100 |  | > 100 |  | > 100
7 | CCOc1ccccc1NC(=O)C(=O)CC(=O)C1=C(C)Nc2ccccc2S1 |  | > 76.4 |  | > 100 |  | > 100 |  | > 100 |  | > 100 |  | > 100 |  | > 100 |  | > 100 |  | > 100 |  | > 100
8 | CCCOc1ccc(/C(Cl)=C(\C=O)c2ccc(OC)c(OC)c2)cc1OCCC |  | > 100 |  | > 100 |  | > 100 |  | 32 |  | 55.1 |  | 19.8 |  | 38.8 |  | 14.6 |  | > 100 |  | 6.12
9 | O=C(N[C@H](c1ccc(Cl)c(Cl)c1)C1CNC1)c1ccc2cnccc2c1 | 3.37 | 14 | 11.5 | 23.9 | 6.11 | 18.9 | 10.2 | 22.4 | 1.71 | 11.3 | 5.39 | 19.1 | 3.06 | 14.6 | 2.96 | 11.5 | 10.4 | 23 | 12.9 | 26.5
10 | COc1ccc2c(c1)C(=O)c1c-2n(CCCN=[N+]=[N-])c(=O)c2ccccc12 | 26 | > 100 | 52.4 | > 100 | 28.7 | > 100 | 46 | > 100 | 44.8 | > 100 | 75.5 | > 100 | > 100 | > 100 | 34.6 | > 100 | 73 | > 100 | 10.8 | > 100
11 | COc1ccc2c(=O)c([Se]c3coc4cc(OC)ccc4c3=O)coc2c1 |  | > 100 |  | > 100 |  | > 100 |  | > 100 |  | > 100 |  | > 100 |  | > 100 |  | > 100 |  | > 100 |  | > 100
12 | CCN1CCN(CCOc2ccc(CNc3ccc4nc(CCC5CCCCC5)[nH]c4c3)cc2)CC1 | 0.42 | 2.69 | 1.89 | 4.34 | 2.79 | 7.96 | 1.92 | 3.77 | 1.57 | 3 | 1.93 | 3.52 | 1.57 | 3.08 | 1.76 | 3.52 | 2.45 | 7.04 | 2.44 | 5.95
13 | Clc1ccc(-c2nc3c(-c4ccc(Cl)cc4)nc(-c4ccccc4)cn3c2-c2ccc(Cl)cc2)cc1 | > 50 | > 50 | > 50 | > 50 | > 50 | > 50 | 26 | > 50 | 21 | > 50 | 26 | > 50 | > 50 | > 50 | > 50 | > 50 | > 50 | > 50 | 44.7 | > 50
14 | CC(=O)NNc1nc(C)c(C(=O)NNC(=O)C(=O)Nc2ccc(C)c(C)c2)s1 |  | > 100 |  | 81.1 |  | > 100 |  | > 100 |  | > 100 |  | > 100 |  | > 100 |  | > 100 |  | > 100 |  | 46.3
15 | Cc1cccc(CN(C)c2ccc(CO)c(Cl)c2)c1 | 8.76 | > 100 | 4.2 | 17 | 32.7 | > 100 | 8.54 | 36 | 26.8 | > 77.3 | 0.301 | 2.96 | 19.5 | 49.8 | 4.86 | 17.7 | 16.1 | > 79.5 | 17.6 | 57.8
16 | CCCCCCN(CCCCCC)CCCNc1nccc2ccccc12 | 1.95 | 5.18 | 1.73 | 3.55 | 1.9 | 4.47 | 1.8 | 3.41 | 1.94 | 3.59 | 1.69 | 3.41 | 1.94 | 3.91 | 1.48 | 3.07 | 1.67 | 3.19 | 1.44 | 3.23
17 | Cc1ccc(-n2c3c(c4c(CN5CCCCC5)c(O)ccc42)CCc2ccccc2C3=O)cc1 | 32.2 | > 100 | > 100 | > 100 | > 100 | > 100 | > 100 | > 100 | 50 | > 100 | 97.4 | > 100 | > 100 | > 100 | > 100 | > 100 | 46 | > 100 | > 100 | > 100
18 | O=C1NC(=NCC(CO)c2ccccc2)S/C1=C\c1ccc2ncccc2c1 (centres undefined) | 10.6 | > 25 | 13.8 | > 25 | 24.4 | > 25 | > 25 | > 25 | 11.2 | > 25 | > 25 | > 25 | > 25 | > 25 | 7.77 | > 25 | > 25 | > 25 | > 14.1 | > 25
19 | CCCc1cc(=O)oc2c(C(=O)CC(C)C)c(O)c(CC=C(C)C)c(O)c12 | 4.13 | > 50 | 3.53 | > 50 | 7.53 | 47.1 | 9.71 | 49 | 9.8 | 44.2 | 1.88 | 12.1 | 9.89 | 32.4 | 10.6 | 21.5 | 12 | > 50 | 8.17 | > 50
20 | O=C(CCCn1c2c(sc3ncccc32)c(=O)n2nnc(-c3ccccc3)c12)NCCc1cnc[nH]1 | 0.31 | 15.6 | 11 | 23.6 | 15.3 | 31 | 17.6 | 38.9 | 0.316 | 14.9 | 16 | 30.5 | 18.1 | 37 | 6.28 | 23.5 | 0.0952 | 17.3 | 2.95 | 23
21 | CCOP(=O)(CCP(=O)(OCC)OCC)OCC.C[CH2][Sn]([Cl])([Cl])[CH2]C | 27.4 | > 100 | > 84.3 | > 100 | 36.7 | 57.1 | 18.9 | 43.1 | 34.9 | 52.1 | 34 | 55 | 15.3 | 30.6 | 30.4 | 50.9 | > 100 | > 100 | 1.64 | 4.97
22 | CCSC1(SCC)CCN(C=NC(C)(C)C)C1 |  | > 100 |  | > 100 |  | > 100 |  | > 100 |  | > 100 |  | > 100 |  | > 100 |  | > 100 |  | > 100 |  | > 100
23 | c1cncc(CNc2ccccc2-c2nnc(Nc3ccc4c(c3)OCO4)o2)c1 | 0.0474 | > 100 | 0.0303 | 0.0866 | 0.717 | > 100 | 0.052 | 91.9 | 0.0815 | 0.539 | 0.0542 | > 100 | 0.0744 | > 100 | 0.0411 | 0.551 | 0.127 | > 100 | 0.0247 | 0.0709
24 | Nc1nc(-c2ccccc2)c(-c2ccccc2)c(-c2nc(N)nc(-c3ccccc3)c2-c2ccccc2)n1 |  | > 100 |  | > 100 |  | > 100 |  | > 100 |  | > 100 |  | > 100 |  | > 100 |  | > 100 |  | > 100 |  | > 100
25 | O=C(CC(=O)N1N=C(n2ccc3ccccc32)CC1c1ccccc1)Nc1cccc(Cl)c1 (centres undefined) |  | > 100 |  | > 100 |  | > 100 |  | > 100 |  | > 100 |  | > 100 |  | > 100 |  | > 100 |  | > 100 |  | > 100
26 | O=C(CCc1nnc2s/c(=C\c3ccccc3)c(=O)n12)Nc1cc(Cl)ccc1Cl |  | > 100 |  | > 100 |  | > 100 |  | > 100 |  | > 100 |  | > 100 |  | > 100 |  | > 100 |  | > 100 |  | > 100
27 | Fc1ccc(-c2nc(-c3nc4ccc(Cl)cc4[nH]3)cc3c2[nH]c2ccccc23)cc1 | 3.32 | 38.4 | 2.74 | 6.87 | 3.06 | 13.7 | 2.76 | 7.54 | 3.55 | 13.8 | 2.28 | 6.9 | 4.54 | 17.3 | 1.89 | 4.22 | 2.88 | 10.7 | 2.74 | 12.9
28 | Cc1ccc(SSCCCS(=O)O)cc1 |  | > 100 |  | > 100 |  | > 100 |  | > 100 |  | 40.6 |  | > 100 |  | > 100 |  | 52.9 |  | 50 |  | 37.5
29 | O=C1C2=C(C(=O)c3c(O)ccc(O)c31)N(c1ccc(N3CCOCC3)nc1)Cc1ccccc1O2 | 0.0889 |  | 0.227 | 0.651 | 0.0534 | 0.237 | 1.39 | 3.75 | 0.276 | 0.944 | 0.369 | 1.56 | 0.134 | 0.418 | 0.137 | 0.318 | 0.35 | 12.3 | 0.0581 | 0.194
30 | C/C(=N\NC(=O)CC(=O)Nc1ccc(C)cc1)c1cc2ccccc2oc1=O |  | > 100 |  | > 100 |  | > 100 |  | > 100 |  | > 100 |  | > 100 |  | > 100 |  | > 100 |  | > 100 |  | > 100
